Experiment: xn = mol fraction of the nth substance listed
Settings: Liquid, Vibrating tube method

CCCC [butane] + CCC
Settings | mass density [kg/m3]
239.04 K, 463.7 kPa, x2 = 0.25 | 622.82
239.04 K, 943.7 kPa, x2 = 0.25 | 623.31
239.04 K, 1507.7 kPa, x2 = 0.25 | 623.9
239.04 K, 1962.4 kPa, x2 = 0.25 | 624.35
239.04 K, 2486.4 kPa, x2 = 0.25 | 624.89
239.04 K, 3058.3 kPa, x2 = 0.25 | 625.46
239.04 K, 3473.7 kPa, x2 = 0.25 | 625.88
239.04 K, 3994 kPa, x2 = 0.25 | 626.39
239.04 K, 4514.6 kPa, x2 = 0.25 | 626.9
239.04 K, 4950 kPa, x2 = 0.25 | 627.33
239.04 K, 5524.3 kPa, x2 = 0.25 | 627.9
239.04 K, 6029.4 kPa, x2 = 0.25 | 628.39
239.04 K, 6518 kPa, x2 = 0.25 | 628.86
239.04 K, 6930.6 kPa, x2 = 0.25 | 629.26
240 K, 478.5 kPa, x2 = 0.5 | 606.78
240 K, 514.9 kPa, x2 = 0.75 | 589.83
240 K, 996.7 kPa, x2 = 0.5 | 607.38
240 K, 1006.3 kPa, x2 = 0.75 | 590.44
240 K, 1479 kPa, x2 = 0.5 | 607.88
240 K, 1505.4 kPa, x2 = 0.75 | 591.03
240 K, 1962.4 kPa, x2 = 0.5 | 608.42
240 K, 2024.2 kPa, x2 = 0.75 | 591.63
240 K, 2491.6 kPa, x2 = 0.5 | 609
240 K, 2519.5 kPa, x2 = 0.75 | 592.21
240 K, 2956 kPa, x2 = 0.5 | 609.51
240 K, 3022.7 kPa, x2 = 0.75 | 592.8
240 K, 3501.4 kPa, x2 = 0.5 | 610.09
240 K, 3519.4 kPa, x2 = 0.75 | 593.39
240 K, 3952.5 kPa, x2 = 0.5 | 610.58
240 K, 4031.2 kPa, x2 = 0.75 | 593.97
240 K, 4493.1 kPa, x2 = 0.5 | 611.14
240 K, 4526.8 kPa, x2 = 0.75 | 594.51
240 K, 4946.9 kPa, x2 = 0.75 | 594.99
240 K, 4972.1 kPa, x2 = 0.5 | 611.66
240 K, 5472.1 kPa, x2 = 0.5 | 612.19
240 K, 5521.6 kPa, x2 = 0.75 | 595.64
240 K, 6000.1 kPa, x2 = 0.5 | 612.74
240 K, 6044.8 kPa, x2 = 0.75 | 596.2
240 K, 6502.7 kPa, x2 = 0.5 | 613.25
240 K, 6539.6 kPa, x2 = 0.75 | 596.77
240 K, 6973.1 kPa, x2 = 0.5 | 613.74
240 K, 7045.6 kPa, x2 = 0.75 | 597.3
260 K, 489.6 kPa, x2 = 0.75 | 566.44
260 K, 495.8 kPa, x2 = 0.5 | 585.02
260 K, 524.1 kPa, x2 = 0.25 | 600.69
260 K, 996.9 kPa, x2 = 0.75 | 567.21
260 K, 1001.1 kPa, x2 = 0.5 | 585.74
260 K, 1004.9 kPa, x2 = 0.25 | 601.3
260 K, 1482.5 kPa, x2 = 0.25 | 601.91
260 K, 1504.2 kPa, x2 = 0.75 | 567.97
260 K, 1506.4 kPa, x2 = 0.5 | 586.42
260 K, 1989.9 kPa, x2 = 0.25 | 602.54
260 K, 2003.6 kPa, x2 = 0.75 | 568.71
260 K, 2004.6 kPa, x2 = 0.5 | 587.1
260 K, 2508.4 kPa, x2 = 0.75 | 569.45
260 K, 2517.2 kPa, x2 = 0.5 | 587.78
260 K, 2521.3 kPa, x2 = 0.25 | 603.2
260 K, 3004 kPa, x2 = 0.25 | 603.79
260 K, 3014.9 kPa, x2 = 0.5 | 588.45
260 K, 3015.6 kPa, x2 = 0.75 | 570.19
260 K, 3449.6 kPa, x2 = 0.25 | 604.34
260 K, 3495.5 kPa, x2 = 0.75 | 570.88
260 K, 3506 kPa, x2 = 0.5 | 589.1
260 K, 4004.5 kPa, x2 = 0.5 | 589.73
260 K, 4006.2 kPa, x2 = 0.75 | 571.62
260 K, 4007 kPa, x2 = 0.25 | 605.01
260 K, 4494.5 kPa, x2 = 0.75 | 572.27
260 K, 4511.7 kPa, x2 = 0.25 | 605.63
260 K, 4525.9 kPa, x2 = 0.5 | 590.39
260 K, 5017.4 kPa, x2 = 0.5 | 591.03
260 K, 5017.7 kPa, x2 = 0.25 | 606.24
260 K, 5022.8 kPa, x2 = 0.75 | 573.01
260 K, 5508.1 kPa, x2 = 0.75 | 573.69
260 K, 5512.4 kPa, x2 = 0.25 | 606.82
260 K, 5513.7 kPa, x2 = 0.5 | 591.66

240 K
Settings | mass density [kg/m3]
x2 = 0.5 | 606.37
x2 = 0.75 | 589.36

Source: the NIST ThermoML archive (doi:10.1021/je049671t)
